Laboratory results reported in ChEMBL document CHEMBL5390237, “Discovery of Selective Histone Deacetylase 1 and 2 Inhibitors: Screening of a Focused Library Constructed by Click Chemistry, Kinetic Binding Analysis, and Biological Evaluation” (J Med Chem, 2023).

Target: Histone deacetylase 2 (Homo sapiens, UniProt Q92769)
Test: Inhibition of full-length recombinant human C-terminal GST tagged HDAC2 expressed in Sf9 insect cells using aminoluciferin peptide substrate at 100 nM preincubated for 3 hrs followed by substrate addition and measured after 30 mins by HDAC-Glo I/II chemiluminescence assay
Settings: time 3.5 hrs

Histone deacetylase 2, sequence (Q92769 whole entry): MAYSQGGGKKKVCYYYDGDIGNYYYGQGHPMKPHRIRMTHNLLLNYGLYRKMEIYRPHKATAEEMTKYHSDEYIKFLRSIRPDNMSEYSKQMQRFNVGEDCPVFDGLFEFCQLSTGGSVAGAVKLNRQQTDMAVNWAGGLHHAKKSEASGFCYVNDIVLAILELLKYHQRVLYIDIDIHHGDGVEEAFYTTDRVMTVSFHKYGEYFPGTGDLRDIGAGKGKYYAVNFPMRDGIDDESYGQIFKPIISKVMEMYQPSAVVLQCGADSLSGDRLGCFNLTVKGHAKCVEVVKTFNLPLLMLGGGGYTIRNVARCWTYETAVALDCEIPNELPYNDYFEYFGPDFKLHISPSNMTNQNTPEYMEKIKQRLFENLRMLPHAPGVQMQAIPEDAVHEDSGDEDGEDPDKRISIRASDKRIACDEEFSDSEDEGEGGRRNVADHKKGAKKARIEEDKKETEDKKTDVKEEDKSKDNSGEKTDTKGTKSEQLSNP

First: CCc1ccc(Cn2cc(CCC(=O)Nc3cc(-c4ccsc4)ccc3N)nn2)cc1
Second: COc1ccc(CCn2cc(CCC(=O)Nc3cc(-c4ccsc4)ccc3N)nn2)cc1
The inhibition of the first is lower: 6% for the first, 29% for the second.

`Nc1ccc(-c2cccs2)cc1NC(=O)c1ccc(-c2cn(CCCCCc3ccccc3)nn2)s1` and `Nc1ccc(-c2cccs2)cc1NC(=O)c1cn(CCCCCc2ccccc2)nn1` are the same in inhibition: 1% for the first, 1% for the second.

Compared with `Cc1ccccc1CCn1cc(CCC(=O)Nc2cc(-c3cccnc3)ccc2N)nn1`, `Nc1ccc(-c2cccnc2)cc1NC(=O)CCc1cn(CCc2ccccc2Cl)nn1` is higher in inhibition: 0% for the first, 9% for the second.

Going from `Nc1ccc(-c2ccc(F)cc2)cc1NC(=O)CCc1cn(CCc2ccc(Cl)cc2)nn1` to `Nc1ccc(-c2ccc(F)cc2)cc1NC(=O)CCc1cn(CCc2ccc([N+](=O)[O-])cc2)nn1`, the inhibition rises from 3% to 20%.

`Cc1ccc(-n2cc(C(=O)Nc3cc(-c4cccs4)ccc3N)nn2)cc1C` and `Nc1ccc(-c2cccs2)cc1NC(=O)c1cn(-c2ccc(O)cc2)nn1` are the same in inhibition: 0% for the first, 0% for the second.

First: Nc1ccc(-c2cccs2)cc1NC(=O)c1cccc(-c2cn(CCC34CC5CC(CC(C5)C3)C4)nn2)c1
Second: Nc1ccc(-c2cccs2)cc1NC(=O)c1ccc(-c2cn(CCC34CC5CC(CC(C5)C3)C4)nn2)cc1
The inhibition of the first is higher: 9% for the first, 5% for the second.

`Nc1ccc(-c2ccc(F)cc2)cc1NC(=O)CCc1cn(Cc2ccc(-c3ccccc3)cc2)nn1` and `Nc1ccc(-c2ccc(F)cc2)cc1NC(=O)CCc1cn(CCc2cccc3ccccc23)nn1` are the same in inhibition: 0% for the first, 0% for the second.

Going from `Nc1ccc(-c2cccnc2)cc1NC(=O)CCc1cn(CCC23CC4CC(CC(C4)C2)C3)nn1` to `Nc1ccc(-c2cccnc2)cc1NC(=O)CCc1cn(CC23CC4CC(CC(C4)C2)C3)nn1`, the inhibition falls from 5% to 2%.

First: Nc1ccc(-c2cccs2)cc1NC(=O)c1cn(CCc2cccc3ccccc23)nn1
Second: Nc1ccc(-c2cccs2)cc1NC(=O)CCc1cn(Cc2cccc3ccccc23)nn1
The inhibition of the first is lower: 0% for the first, 9% for the second.

Compared with `Nc1ccc(-c2cccs2)cc1NC(=O)c1cn(CCC23CC4CC(CC(C4)C2)C3)nn1`, `Nc1ccc(-c2ccsc2)cc1NC(=O)c1cn(CC23CC4CC(CC(C4)C2)C3)nn1` is lower in inhibition: 2% for the first, 0% for the second.

Compared with `Nc1ccc(-c2ccsc2)cc1NC(=O)c1cn(CC(=O)Nc2ccc(F)cc2)nn1`, `Nc1ccc(-c2ccsc2)cc1NC(=O)c1cn(C[S+]([O-])c2ccccc2)nn1` (centres undefined) is higher in inhibition: 8% for the first, 10% for the second.

`Cc1ccc(-n2cc(CCC(=O)Nc3cc(-c4ccc(F)cc4)ccc3N)nn2)cc1C` and `Nc1ccc(-c2ccc(F)cc2)cc1NC(=O)CCc1cn(-c2ccc(Br)cc2)nn1` are the same in inhibition: 0% for the first, 0% for the second.

`Nc1ccc(-c2ccccc2)cc1NC(=O)c1cn(-c2ccc(Br)cc2)nn1` and `Nc1ccc(-c2ccccc2)cc1NC(=O)c1cn(CCc2ccc(F)cc2)nn1` are the same in inhibition: 0% for the first, 0% for the second.

First: Cc1ccccc1CCn1cc(-c2ccc(C(=O)Nc3cc(-c4cccs4)ccc3N)cc2)nn1
Second: Nc1ccc(-c2cccs2)cc1NC(=O)c1ccc(-c2cn(CCc3ccccc3)nn2)cc1
The inhibition of the first is lower: 0% for the first, 65% for the second.

Going from `Nc1ccc(-c2ccccc2)cc1NC(=O)CCc1cn(-c2cccc3ccccc23)nn1` to `Nc1ccc(-c2ccccc2)cc1NC(=O)CCc1cn(C[S+]([O-])c2ccccc2)nn1` (centres undefined), the inhibition rises from 0% to 8%.

Compared with `Cc1csc(CCn2cc(-c3ccc(C(=O)Nc4cc(-c5cccs5)ccc4N)cc3)nn2)n1`, `Cc1ccc(CCn2cc(-c3ccc(C(=O)Nc4cc(-c5cccs5)ccc4N)cc3)nn2)cc1` is lower in inhibition: 68% for the first, 19% for the second.

First: Nc1ccc(-c2ccc(F)cc2)cc1NC(=O)c1cn(Cc2ccc3ccccc3n2)nn1
Second: Nc1ccc(-c2ccc(F)cc2)cc1NC(=O)c1cn(CCc2ccccc2C(F)(F)F)nn1
The inhibition of the first is higher: 27% for the first, 0% for the second.

Compared with `Nc1ccc(-c2cccs2)cc1NC(=O)c1ccc(-c2cn(CCc3ccc(F)cc3)nn2)s1`, `Nc1ccc(-c2cccs2)cc1NC(=O)c1ccc(-c2cn(CCc3ccc(Cl)cc3)nn2)s1` is lower in inhibition: 18% for the first, 3% for the second.

`Nc1ccc(-c2ccccc2)cc1NC(=O)c1cn(CCCCCCC(=O)O)nn1` and `Nc1ccc(-c2ccccc2)cc1NC(=O)c1cn(CCCCCCCC(=O)O)nn1` are the same in inhibition: 0% for the first, 0% for the second.

Compared with `Nc1ccc(-c2cccs2)cc1NC(=O)CCc1cn(CCc2cccc(F)c2)nn1`, `Cc1ccc(CCn2cc(CCC(=O)Nc3cc(-c4cccs4)ccc3N)nn2)cc1` is higher in inhibition: 5% for the first, 30% for the second.

`Nc1ccc(-c2ccc(F)cc2)cc1NC(=O)CCc1cn(Cc2cccc(C(=O)O)c2)nn1` and `Nc1ccc(-c2ccsc2)cc1NC(=O)CCc1cn(Cc2cccc(C(=O)O)c2)nn1` are the same in inhibition: 0% for the first, 0% for the second.

`Nc1ccc(-c2cccs2)cc1NC(=O)c1ccc(-c2cn(CC34CC5CC(CC(C5)C3)C4)nn2)s1` and `Nc1ccc(-c2cccs2)cc1NC(=O)c1ccc(-c2cn(CC34CC5CC(CC(C5)C3)C4)nn2)cc1` are the same in inhibition: 0% for the first, 0% for the second.

First: Nc1ccc(-c2cccs2)cc1NC(=O)c1ccc(-c2cn(CCc3ccc(C(=O)O)cc3)nn2)s1
Second: Nc1ccc(-c2cccs2)cc1NC(=O)c1ccc(-c2cn(CCN3CCc4ccccc4C3)nn2)s1
The inhibition of the first is higher: 55% for the first, 32% for the second.

`Nc1ccc(-c2ccsc2)cc1NC(=O)CCc1cn(CCCCCCC(=O)O)nn1` and `Nc1ccc(-c2cccnc2)cc1NC(=O)CCc1cn(CCCCCCCC(=O)O)nn1` are the same in inhibition: 0% for the first, 0% for the second.

Going from `Nc1ccc(-c2cccs2)cc1NC(=O)c1cccc(-c2cn(CCc3ccc(C(F)(F)F)cc3)nn2)c1` to `Cc1cccc(CCn2cc(-c3ccc(C(=O)Nc4cc(-c5cccs5)ccc4N)cc3)nn2)c1`, the inhibition rises from 0% to 26%.

Going from `Cc1ccc(-n2cc(-c3ccc(C(=O)Nc4cc(-c5cccs5)ccc4N)cc3)nn2)cc1C` to `Nc1ccc(-n2cc(-c3ccc(C(=O)Nc4cc(-c5cccs5)ccc4N)cc3)nn2)cc1`, the inhibition rises from 0% to 51%.

Going from `Nc1ccc(-c2ccccc2)cc1NC(=O)CCc1cn(CCc2ccccc2Cl)nn1` to `Nc1ccc(-c2ccc(F)cc2)cc1NC(=O)CCc1cn(CCc2ccccc2Cl)nn1`, the inhibition rises from 0% to 4%.

Compared with `Nc1ccc(-c2cccnc2)cc1NC(=O)CCc1cn(CCc2cccc(Cl)c2)nn1`, `Nc1ccc(-c2cccnc2)cc1NC(=O)CCc1cn(Cc2cc3ccccc3s2)nn1` is lower in inhibition: 30% for the first, 9% for the second.

First: Nc1ccc(-c2cccs2)cc1NC(=O)c1cn(CCc2cccc(Cl)c2)nn1
Second: Nc1ccc(-c2ccccc2)cc1NC(=O)c1cn(CCc2cccc(Cl)c2)nn1
The inhibition of the first is higher: 2% for the first, 0% for the second.

First: Nc1ccc(-c2ccc(F)cc2)cc1NC(=O)c1cn(CCC2CCCC2)nn1
Second: Nc1ccc(-c2ccc(F)cc2)cc1NC(=O)CCc1cn(CCC2CCCCC2)nn1
The inhibition of the first is lower: 0% for the first, 2% for the second.

Compared with `Nc1ccc(-c2ccccc2)cc1NC(=O)CCc1cn(CS(=O)(=O)c2ccccc2)nn1`, `Nc1ccc(-c2ccccc2)cc1NC(=O)c1cn(CC(=O)c2ccccc2)nn1` is lower in inhibition: 9% for the first, 0% for the second.

First: Nc1ccc(-c2ccc(F)cc2)cc1NC(=O)CCc1cn(CCc2ccccn2)nn1
Second: Nc1ccc(-c2ccc(F)cc2)cc1NC(=O)CCc1cn(CCc2cccc(F)c2)nn1
The inhibition of the first is higher: 18% for the first, 15% for the second.

Going from `Nc1ccc(-c2cccs2)cc1NC(=O)CCc1cn(Cc2ccc(Oc3ccccc3)cc2)nn1` to `Nc1ccc(-c2cccs2)cc1NC(=O)CCc1cn(Cc2nc3ccccc3[nH]2)nn1`, the inhibition rises from 6% to 19%.

Going from `Nc1ccc(-c2ccsc2)cc1NC(=O)CCc1cn(CCc2c[nH]c3ccccc23)nn1` to `COc1ccccc1CCn1cc(CCC(=O)Nc2cc(-c3ccsc3)ccc2N)nn1`, the inhibition falls from 22% to 20%.

Compared with `Nc1ccc(-c2ccsc2)cc1NC(=O)CCc1cn(CCc2ccccc2[N+](=O)[O-])nn1`, `Nc1ccc(-c2ccc(F)cc2)cc1NC(=O)CCc1cn(CCc2ccccc2[N+](=O)[O-])nn1` is lower in inhibition: 23% for the first, 20% for the second.

`Nc1ccc(-c2cccs2)cc1NC(=O)CCc1cn(CCc2ccccc2Cl)nn1` and `Nc1ccc(-c2cccs2)cc1NC(=O)c1cn(CCc2ccccc2C(F)(F)F)nn1` are the same in inhibition: 5% for the first, 5% for the second.

`Nc1ccc(-c2ccccc2)cc1NC(=O)c1cn(Cc2cccc(C(=O)O)c2)nn1` and `Nc1ccc(-c2ccccc2)cc1NC(=O)c1cn(CCc2cccc(C(F)(F)F)c2)nn1` are the same in inhibition: 0% for the first, 0% for the second.

First: Nc1ccc(-c2ccsc2)cc1NC(=O)c1cn(Cc2cc3ccccc3s2)nn1
Second: Nc1ccc(-c2ccsc2)cc1NC(=O)c1cn(Cc2nc3ccccc3[nH]2)nn1
The inhibition of the first is lower: 0% for the first, 25% for the second.

Going from `Nc1ccc(-c2cccs2)cc1NC(=O)c1cccc(-c2cn(CCCCC(=O)O)nn2)c1` to `Nc1ccc(-c2cccs2)cc1NC(=O)c1ccc(-c2cn(CCCCCCCC(=O)O)nn2)cc1`, the inhibition falls from 48% to 0%.

`Nc1ccc(-c2cccs2)cc1NC(=O)c1ccc(-c2cn(Cc3cccc(-c4ccccc4)c3)nn2)cc1` and `Nc1ccc(-c2cccs2)cc1NC(=O)c1ccc(-c2cn(-c3cccc4ccccc34)nn2)cc1` are the same in inhibition: 0% for the first, 0% for the second.

`COc1ccc(CCn2cc(C(=O)Nc3cc(-c4ccccc4)ccc3N)nn2)cc1` and `Nc1ccc(-c2ccc(F)cc2)cc1NC(=O)c1cn(CCc2cccc(C(F)(F)F)c2)nn1` are the same in inhibition: 0% for the first, 0% for the second.

`Nc1ccc(-c2cccs2)cc1NC(=O)CCc1cn(CC2CCCCC2)nn1` and `Nc1ccc(-c2cccnc2)cc1NC(=O)CCc1cn(CC2CCCCC2)nn1` are the same in inhibition: 0% for the first, 0% for the second.

First: COc1ccc(Cn2cc(-c3ccc(C(=O)Nc4cc(-c5cccs5)ccc4N)cc3)nn2)cc1
Second: COc1ccc(-n2cc(-c3ccc(C(=O)Nc4cc(-c5cccs5)ccc4N)cc3)nn2)cc1
The inhibition of the first is higher: 4% for the first, 0% for the second.

Going from `Nc1ccc(-c2cccs2)cc1NC(=O)c1ccc(-c2cn(Cc3nc4ccccc4[nH]3)nn2)cc1` to `Nc1ccc(-c2ccc(F)cc2)cc1NC(=O)CCc1cn(Cc2cc3ccccc3s2)nn1`, the inhibition falls from 37% to 3%.

Going from `Nc1ccc(-c2cccs2)cc1NC(=O)CCc1cn(CCN2CCOCC2)nn1` to `Nc1ccc(-c2cccnc2)cc1NC(=O)CCc1cn(CCC2CCCCC2)nn1`, the inhibition rises from 1% to 5%.

First: Nc1ccc(-c2ccc(F)cc2)cc1NC(=O)CCc1cn(CCc2ccc(C(F)(F)F)cc2)nn1
Second: Nc1ccc(-c2ccc(F)cc2)cc1NC(=O)CCc1cn(CCCCCCCC(=O)O)nn1
The inhibition of the first is lower: 1% for the first, 15% for the second.

First: Nc1ccc(-c2ccsc2)cc1NC(=O)CCc1cn(C[S+]([O-])c2ccccc2)nn1 (centres undefined)
Second: Nc1ccc(-c2ccsc2)cc1NC(=O)CCc1cn(CC23CC4CC(CC(C4)C2)C3)nn1
The inhibition of the first is higher: 8% for the first, 0% for the second.
